Data as given in article PMC7418559, “Synthesis and SAR of Tetracyclic Inhibitors of Protein Kinase CK2 Derived from Furocarbazole W16” (Chemmedchem, 2020).
Where two headings read alike, the source gives them in different places.

Tests used:
[1] = target: T1, CK2α/CK2β interaction (CK2α^1−335 / fluorescently labeled CK2β^1−193) (Homo sapiens, UniProt P68400); conditions: for Inhibition of CK2α/CK2β2 interaction K i: MST, global fit with K D = […] nM, mean±SEM of 2–4 experiments, prec.=precipitation, n.s.=not significant
T1 sequence (P68400 1-335): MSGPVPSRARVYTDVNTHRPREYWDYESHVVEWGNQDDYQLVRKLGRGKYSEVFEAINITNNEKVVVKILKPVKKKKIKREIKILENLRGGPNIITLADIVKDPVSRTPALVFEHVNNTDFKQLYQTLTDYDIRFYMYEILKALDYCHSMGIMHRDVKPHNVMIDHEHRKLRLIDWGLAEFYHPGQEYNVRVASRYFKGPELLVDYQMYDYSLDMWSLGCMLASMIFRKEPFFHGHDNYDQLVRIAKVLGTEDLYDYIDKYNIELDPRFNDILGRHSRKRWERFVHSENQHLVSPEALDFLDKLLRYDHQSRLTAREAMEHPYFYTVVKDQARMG
Protocol: The inhibition of the interaction between the CK2α and the CK2β subunit was determined in a microscale thermophoresis (MST) assay.
To quantify the protein‐protein interaction in the presence of potential inhibitors, the investigated compounds were first dissolved in DMSO (2‐10 mM) and then 50‐fold diluted in ITC buffer (25 mM Tris‐HCl, 500 mM NaCl, pH 8.5) containing 0.1 % (v/v) Tween 20 to concentrations of either 40, 100 or 200 μM in 2 % (v/v) DMSO, i. e. twice the final concentrations: 20, 50 and 100 μM, respectively, in 1 % (v/v) DMSO, 0.05 % (v/v) Tween 20. […] MST traces were recorded at room temperature using a Nanotemper Monolith™ NT.115 Series Instrument with Monolith™ NT.115 standard treated capillaries and normalized to initial fluorescence (MO.Affinity Analysis, Nanotemper). […] Next, the statistical significance of the shift from K D to K D’ was determined for each compound by means of an unpaired Student's t test (Table S4). […] Data was analyzed and statistically evaluated with the program GraphPad Prism v.5.04 for Windows (GraphPad Software, San Diego, CA, USA).
a Shown are mean  SEM values of KD and KD’ for n separate experiments.
significant (n. s.), P > 0.05; *, P ≤ 0.05; **, P ≤ 0.01; ***, P ≤ 0.001; ****, P ≤ 0.0001. prec.

[2] = target: T2, holoenzyme CK2α2β2 (Homo sapiens, UniProt P68400); experiment: Capillary electrophoresis (CE) assay, enzyme inhibition of the holoenzyme; type: biochemical; conditions: for inhibition at 10 µM: read-out: Inhibition (%) of CK2α2β2
T2 construct: made in house; host or cells: E. coli BL21(DE3)
T2 sequence (P68400 whole entry): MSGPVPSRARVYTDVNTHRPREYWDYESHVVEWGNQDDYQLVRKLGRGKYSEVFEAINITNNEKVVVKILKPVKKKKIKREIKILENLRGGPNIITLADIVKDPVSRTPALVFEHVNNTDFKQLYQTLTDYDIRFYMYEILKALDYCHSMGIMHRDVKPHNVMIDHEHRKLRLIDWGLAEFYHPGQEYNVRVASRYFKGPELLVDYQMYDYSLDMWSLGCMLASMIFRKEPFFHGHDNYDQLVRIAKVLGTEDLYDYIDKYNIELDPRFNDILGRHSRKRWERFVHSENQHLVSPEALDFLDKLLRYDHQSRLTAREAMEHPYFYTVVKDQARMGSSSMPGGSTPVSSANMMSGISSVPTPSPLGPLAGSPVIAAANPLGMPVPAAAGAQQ
Protocol: (§1) In this assay, the decapeptide […], a known class I substrate suitable for assaying the kinase activity of both the CK2 holoenzyme and the catalytically active CK2 subunits,50, 58 was reacted with ATP in the presence of enzyme, which transfers a phosphate group to Ser7 of the decapeptide. Due to the additional negative charge of the phosphate group, the decapeptide and the phosphorylated decapeptide can be separated by CE.
Enzymatic activities with or without inhibitors were determined for the holoenzyme (CK2α2β2), the CK2α subunit, and the mutated CK2α′ ^C336S subunit by a capillary electrophoresis assay as described before.59 For this purpose, CK2α as well as (CK2α2β2) holoenzyme were purified after recombinant expression in E. coli BL21(DE3) and purified according the protocol of Grankowski et al.62 The mutated CK2α′ ^C336S subunit was purified by Ni‐NTA affinity chromatography using an N‐terminally attached His6 tag. […] For both CK2α subunits an assay buffer containing 100 mM NaCl instead of 60 mM NaCl as for the holoenzyme, and 20 mM MgCl2 instead of 10 mM MgCl2 was applied. For the holoenzyme, 1 μg was added, whereas for CK2α and the mutated CK2α′ ^C336S subunit 0.25 μg was added each. For each compound inhibition was determined three times independently at an initial concentration of 10 μM and the mean value and the standard deviation (SD) were calculated.

[3] = target: T3, CK2α subunit (Homo sapiens, UniProt P68400); experiment: Capillary electrophoresis (CE) assay, enzyme inhibition of the CK2α subunit; type: biochemical; conditions: for inhibition at 10 µM: read-out: Inhibition (%) of CK2α; for Inhibition (%) of CK2α: c=10 μM, CE assay, mean±SD of three experiments, n.s.=not significant
T3 construct: made in house; host or cells: E. coli BL21(DE3)
T3 sequence (P68400 whole entry): as above
From the text: as §1, with “CE. […] The data on the inhibition of the kinase activities of CK2α2β2, CK2α subunit and mutated CK2α’ ^C336S subunit are summarized in Table 1.” for “CE.”
(§2) Enzymatic activities with or without inhibitors were determined for the holoenzyme (CK2α2β2), the CK2α subunit, and the mutated CK2α′ ^C336S subunit by a capillary electrophoresis assay as described before.59 For this purpose, CK2α as well as (CK2α2β2) holoenzyme were purified after recombinant expression in E. coli BL21(DE3) and purified according the protocol of Grankowski et al.62 The mutated CK2α′ ^C336S subunit was purified by Ni‐NTA affinity chromatography using an N‐terminally attached His6 tag. Successful purification was controlled by SDS‐PAGE. Enzymatic activity was determined in the presence of 60 μM ATP and 114 μM of the substrate peptide […]. For both CK2α subunits an assay buffer containing 100 mM NaCl instead of 60 mM NaCl as for the holoenzyme, and 20 mM MgCl2 instead of 10 mM MgCl2 was applied. For the holoenzyme, 1 μg was added, whereas for CK2α and the mutated CK2α′ ^C336S subunit 0.25 μg was added each. For each compound inhibition was determined three times independently at an initial concentration of 10 μM and the mean value and the standard deviation (SD) were calculated.

[4] = target: T4, mutated CK2α’ ^C336S subunit (Homo sapiens, UniProt P19784, C336S); experiment: Capillary electrophoresis (CE) assay, enzyme inhibition of the mutated CK2α′ C336S subunit; type: biochemical; conditions: for inhibition at 10 µM: read-out: Inhibition (%) of CK2α’ ^C336S
T4 construct: His6 (N); made in house
T4 sequence (P19784 1-350 C336S): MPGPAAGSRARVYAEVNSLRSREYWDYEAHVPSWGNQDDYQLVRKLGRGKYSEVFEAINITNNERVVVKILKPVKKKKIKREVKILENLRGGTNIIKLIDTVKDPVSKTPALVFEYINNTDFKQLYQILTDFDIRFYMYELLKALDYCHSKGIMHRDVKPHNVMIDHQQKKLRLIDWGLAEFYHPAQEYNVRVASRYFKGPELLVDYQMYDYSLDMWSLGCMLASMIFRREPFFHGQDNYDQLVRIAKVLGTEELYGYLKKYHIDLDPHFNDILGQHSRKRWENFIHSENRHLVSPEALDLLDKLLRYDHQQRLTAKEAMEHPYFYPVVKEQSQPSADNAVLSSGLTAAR
From the text: as §1, with “CE. […] The data on the inhibition of the kinase activities of CK2α2β2, CK2α subunit and mutated CK2α’ ^C336S subunit are summarized in Table 1.” for “CE.”
as §2

[5] = c=10 μM, CE assay, mean±SD of three experiments, n.s.=not significant

| Compound | Inhibition of CK2α/CK2β2 interaction K i [1] | inhibition at 10 µM [2, 5] | Inhibition (%) of CK2α’ ^C336S [4, 5] | Inhibition (%) of CK2α [3] | Ki [1] | also measured |
| --- | --- | --- | --- | --- | --- | --- |
| COc1cc([C@H]2c3c([nH]c4ccccc34)[C@H](C(=O)N3C(=O)OC[C@H]3Cc3ccccc3)[C@H]3C(=O)NC(=O)[C@@H]23)cc(OC)c1OC [(+)‐9 d] | n.s. | < 50% | – | – | – | – |
| COc1cc([C@@H]2c3c([nH]c4ccccc34)[C@@H](C(=O)N3C(=O)OC[C@@H]3Cc3ccccc3)[C@@H]3C(=O)OC(=O)[C@H]23)cc(OC)c1OC [(+)‐3 d, (3aS,4S,10R,10aR)‐4‐{[(S)‐4‐Benzyl‐2‐oxo‐1,3‐oxazolidin‐3‐yl]carbonyl}‐10‐(3,4,5‐trimethoxyphenyl)‐4,5,10,10a‐tetrahydrofuro[3,4‐b]carbazole‐1,3(3aH)‐dione] | – | – | n.s. | – | – | inhibition at 10 µM [3]: 43 ± 13%; inhibition at 10 µM [2]: 92 ± 7% |
| COc1cc([C@@H]2c3c([nH]c4ccccc34)[C@H](C(=O)N3C(=O)OC[C@@H]3Cc3ccccc3)[C@@H]3C(=O)NC(=O)[C@H]23)cc(OC)c1OC [(−)‐9 b] | – | – | n.s. | n.s. | 4.4 ± 0.3 µM | Inhibition (%) of CK2α2β2 [2, 5]: n.s. |
| COc1cc([C@H]2c3c([nH]c4ccccc34)[C@@H](C(=O)N3C(=O)OC[C@H]3Cc3ccccc3)[C@H]3C(=O)N(C)C(=O)[C@@H]23)cc(OC)c1OC [(+)‐10 b, (3aS,4S,10S,10aS)‐4‐{[(R)‐4‐Benzyl‐2‐oxo‐1,3‐oxazolidin‐3‐yl]carbonyl}‐2‐methyl‐10‐(3,4,5‐trimethoxyphenyl)‐4,5,10,10a‐tetrahydropyrrolo[3,4‐b]carbazole‐1,3(2H,3aH)‐dione] | – | 31 ± 9% | n.s. | n.s. | 7.2 ± 1.5 µM | – |
| COc1cc([C@@H]2c3c([nH]c4ccccc34)[C@H](C(=O)N3C(=O)OC[C@H]3Cc3ccccc3)[C@@H]3C(=O)N(C)C(=O)[C@H]23)cc(OC)c1OC [(−)‐10 a, (3aR,4R,10R,10aR)‐4‐{[(R)‐4‐Benzyl‐2‐oxo‐1,3‐oxazolidin‐3‐yl]carbonyl}‐2‐methyl‐10‐(3,4,5‐trimethoxyphenyl)‐4,5,10,10a‐tetrahydropyrrolo[3,4‐b]carbazole‐1,3(2H,3aH)‐dione] | – | 29 ± 14% | – | n.s. | 8.5 ± 2.9 µM | inhibition at 10 µM [4, 5]: 30 ± 23% |
| CCOC(=O)C1c2[nH]c3ccccc3c2C(c2cc(OC)c(OC)c(OC)c2)C2C(=O)NC(=O)C12 (racemic) [(±)‐11] | – | – | n.s. | n.s. | 32 ± 17 µM | Inhibition (%) of CK2α2β2 [2, 5]: n.s. |
| COc1cc([C@H]2c3c([nH]c4ccccc34)[C@H](C(=O)N3C(=O)OC[C@@H]3Cc3ccccc3)[C@H]3C(=O)OC(=O)[C@@H]23)cc(OC)c1OC [(+)‐3 c, (3aR,4R,10S,10aS)‐4‐{[(S)‐4‐Benzyl‐2‐oxo‐1,3‐oxazolidin‐3‐yl]carbonyl}‐10‐(3,4,5‐trimethoxyphenyl)‐4,5,10,10a‐tetrahydrofuro[3,4‐b]carbazole‐1,3(3aH)‐dione] | – | – | – | – | – | inhibition at 10 µM [3]: 65 ± 4%; inhibition at 10 µM [4]: 52 ± 38%; inhibition at 10 µM [2]: 66 ± 16% |
| COc1cc([C@H]2c3c([nH]c4ccccc34)[C@@H](C(=O)N3C(=O)OC[C@H]3Cc3ccccc3)[C@H]3C(=O)NC(=O)[C@@H]23)cc(OC)c1OC [(+)‐9 b, (3aS,4S,10S,10aS)‐4‐{[(R)‐4‐Benzyl‐2‐oxo‐1,3‐oxazolidin‐3‐yl]carbonyl}‐10‐(3,4,5‐trimethoxyphenyl)‐4,5,10,10a‐tetrahydropyrrolo[3,4‐b]carbazole‐1,3(2H,3aH)‐dione] | – | 12 ± 7% | n.s. | n.s. | 4.9 ± 0.8 µM | – |
| COc1cc([C@@H]2c3c([nH]c4ccccc34)[C@@H](C(=O)O)[C@@H]3C(=O)NC(=O)[C@H]23)cc(OC)c1OC (racemic) [(±)‐12] | – | – | n.s. | n.s. | 1.8 ± 0.8 µM | Inhibition (%) of CK2α2β2 [2, 5]: n.s. |
| COc1cc([C@@H]2c3c([nH]c4ccccc34)[C@H](C(=O)N3C(=O)OC[C@H]3Cc3ccccc3)[C@@H]3C(=O)OC(=O)[C@H]23)cc(OC)c1OC [(−)‐3 a] | – | – | – | – | – | inhibition at 10 µM [3]: 73 ± 4%; inhibition at 10 µM [4]: 93 ± 2%; inhibition at 10 µM [2]: 89 ± 3% |
| COc1cc([C@@H]2c3c([nH]c4ccccc34)[C@@H](C(=O)N3C(=O)OC[C@H]3Cc3ccccc3)[C@@H]3C(=O)NC(=O)[C@H]23)cc(OC)c1OC [(‐)‐9 c] | prec. | < 50% | – | – | – | – |
| COc1cc([C@@H]2c3c([nH]c4ccccc34)[C@@H](C(=O)N3C(=O)OC[C@@H]3Cc3ccccc3)[C@@H]3C(=O)NC(=O)[C@H]23)cc(OC)c1OC [(−)‐9 d] | n.s. | < 50% | – | – | – | – |
| COc1cc([C@H]2c3c([nH]c4ccccc34)[C@H](C(=O)N3C(=O)OC[C@@H]3Cc3ccccc3)[C@H]3C(=O)NC(=O)[C@@H]23)cc(OC)c1OC [(+)‐9 c] | prec. | < 50% | – | – | – | – |
| COc1cc([C@H]2c3c([nH]c4ccccc34)[C@H](C(=O)N[C@@H](CO)Cc3ccccc3)[C@H]3C(=O)NC(=O)[C@@H]23)cc(OC)c1OC [(+)‐14 d] | n.s. | < 50% | – | – | – | – |
| COc1cc([C@@H]2c3c([nH]c4ccccc34)[C@H](C(=O)N3C(=O)OC[C@@H]3Cc3ccccc3)[C@@H]3C(=O)N(C)C(=O)[C@H]23)cc(OC)c1OC [(−)‐10 b] | – | 15 ± 11% | n.s. | n.s. | 3.7 ± 0.7 µM | – |
| COc1cc([C@H]2c3c([nH]c4ccccc34)[C@@H](C(=O)N3C(=O)OC[C@@H]3Cc3ccccc3)[C@H]3C(=O)NC(=O)[C@@H]23)cc(OC)c1OC [(+)‐9 a] | n.s. | 20 ± 4% | n.s. | n.s. | – | – |
| COc1cc([C@@H]2c3c([nH]c4ccccc34)[C@@H](C(=O)N[C@H](CO)Cc3ccccc3)[C@@H]3C(=O)NC(=O)[C@H]23)cc(OC)c1OC [(−)‐14 d] | n.s. | < 50% | – | – | – | – |
| COc1cc([C@H]2c3c([nH]c4ccccc34)[C@H](C(=O)N[C@H](CO)Cc3ccccc3)[C@H]3C(=O)NC(=O)[C@@H]23)cc(OC)c1OC [(+)‐14 c] | n.s. | < 50% | – | – | – | – |
